How the values were obtained:
[1] = Lipophilicity, log D of the compound in octanol at pH 7.4; assay type: physicochemical
[2] = tested on: human transporter (not named); experiment: Apparent permeability of the compound in MDCK cells expressing human transporter […]; assay type: ADME, cell-based, Canis lupus familiaris; conditions: dog
[3] = Ratio of total drug uptake in brain to blood in Han Wistar rat after 1 hr; assay type: ADME, tissue-based; conditions: brain and blood, read-out: BBR

Row | Compound | logD [1] | Papp [2] [×10⁻⁶ cm/s] | Kp at 1 h [3]
1 | N#Cc1cnc2c(C(=O)N[C@H]3C4CC5CC3C[C@](O)(C5)C4)cnn2c1 | 0.6 | – | –
2 | Cc1cc(C(F)(F)F)n2ncc(C(=O)N[C@H]3C4CC5CC3C[C@](O)(C5)C4)c2n1 | 2.3 | – | –
3 | O=C(N[C@H]1C2CC3CC1C[C@](O)(C3)C2)c1cnn2c(C(F)F)cc(C3CC3)nc12 | 2.8 | – | –
4 | CO[C@]12CC3CC(C1)[C@@H](NC(=O)c1cnn4cc(C)cnc14)C(C3)C2 | 2.6 | 49 | –
5 | O=C(N[C@H]1C2CC3CC1C[C@](O)(C3)C2)c1cnn2cccnc12 | 1.4 | – | –
6 | O=C(N[C@H]1C2CC3CC1C[C@](O)(C3)C2)c1cnc2cccnn12 | 1.2 | – | –
7 | O=C(NC1C2CC3CC(C2)CC1C3)c1cnn2cccnc12 (stereo not given) | 3.5 | – | –
8 | COc1cnc2c(C(=O)N[C@H]3C4CC5CC3C[C@](O)(C5)C4)cnn2c1 | 1.8 | – | –
9 | Cc1ccnc2c(C(=O)N[C@H]3C4CC5CC3C[C@](O)(C5)C4)cnn12 | 2 | – | 0.3
10 | O=C(N[C@H]1C2CC3CC1C[C@](O)(C3)C2)c1cnn2cc(Cl)cnc12 | 1.8 | 44 | 0.3
11 | N#C[C@]12CC3CC(C1)[C@@H](NC(=O)c1cnn4cc(Cl)cnc14)C(C3)C2 | 2.5 | 41 | 0.6
12 | Cc1ccn2ncc(C(=O)N[C@H]3C4CC5CC3C[C@](O)(C5)C4)c2n1 | 1.9 | – | –
13 | O=C(N[C@H]1C2CC3CC1C[C@](O)(C3)C2)c1cnn2c(C(F)(F)F)ccnc12 | 2 | – | –
14 | Cc1cc(C(F)F)n2ncc(C(=O)N[C@H]3C4CC5CC3C[C@](O)(C5)C4)c2n1 | 2.2 | – | –
15 | Cc1cnc2c(C(=O)N[C@H]3C4CC5CC3C[C@](O)(C5)C4)cnn2c1 | 1.7 | 29 | 0.3
16 | O=C(N[C@H]1C2CC3CC1C[C@](O)(C3)C2)c1cnn2ccccc12 | 1.5 | – | –
17 | N#C[C@]12CC3CC(C1)[C@@H](NC(=O)c1cnn4cc(CCO)cnc14)C(C3)C2 | 1.6 | – | –

Other lines, results leading:

Row | logD [1] | Papp [2] [×10⁻⁶ cm/s] | Kp at 1 h [3] | Compound
18 | 2.9 | – | – | Cc1cc(C)n2ncc(C(=O)N[C@H]3C4CC5CC3C[C@](C#N)(C5)C4)c2n1
19 | 1.8 | – | – | COCc1cc(C)n2ncc(C(=O)N[C@H]3C4CC5CC3C[C@](O)(C5)C4)c2n1
20 | 2.3 | 46 | 1.6 | Cc1cnc2c(C(=O)N[C@H]3C4CC5CC3C[C@](C#N)(C5)C4)cnn2c1
21 | 2.1 | – | – | COCc1cc(C)nc2c(C(=O)N[C@H]3C4CC5CC3C[C@](O)(C5)C4)cnn12
22 | 2.4 | – | – | COCc1cc(C)n2ncc(C(=O)N[C@H]3C4CC5CC3C[C@](C#N)(C5)C4)c2n1
23 | 2.4 | – | – | Cc1ccnc2c(C(=O)N[C@H]3C4CC5CC3C[C@](C#N)(C5)C4)cnn12
24 | 2 | – | – | Cc1cc(C)n2ncc(C(=O)N[C@H]3C4CC5CC3C[C@](O)(C5)C4)c2n1
25 | 2.7 | – | – | COCc1cc(C)nc2c(C(=O)N[C@H]3C4CC5CC3C[C@](C#N)(C5)C4)cnn12
